In PubChem BioAssay (NCI):
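Following 48 hours of exposure in 96-well plates, responses at five concentrations were used to interpolate endpoints linearly. GI50 = concentration required for 50% inhibition of growth. Definition used: TGI = concentration required for complete inhibition of growth.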

How the values were obtained:
Assay in all cases: NCI tumour cell line growth inhibition, 48 h
786-0 renal = system: 786-0 renal
CAKI-1 renal = system: CAKI-1 renal
EKVX NSCLC = system: EKVX NSCLC
HCT-15 colon = system: HCT-15 colon
HOP-62 NSCLC = system: HOP-62 NSCLC
HT29 colon = system: HT29 colon
NCI-H23 lung = system: NCI-H23 lung
SF-268 CNS = system: SF-268 CNS
SF-539 CNS = system: SF-539 CNS
SNB-75 CNS = system: SNB-75 CNS

SMILES	TGI (786-0 renal)	TGI (CAKI-1 renal)	TGI (EKVX NSCLC)	TGI (HCT-15 colon)	TGI (HOP-62 NSCLC)	TGI (HT29 colon)	TGI (NCI-H23 lung)	TGI (SF-268 CNS)	TGI (SF-539 CNS)	TGI (SNB-75 CNS)	GI50 (786-0 renal)	GI50 (CAKI-1 renal)	GI50 (EKVX NSCLC)	GI50 (HCT-15 colon)	GI50 (HOP-62 NSCLC)	GI50 (HT29 colon)	GI50 (NCI-H23 lung)	GI50 (SF-268 CNS)	GI50 (SF-539 CNS)	GI50 (SNB-75 CNS)
O=c1oc2ccccc2[n+]([O-])c1-c1ccccc1	> 100 µM	> 100 µM	> 100 µM	> 100 µM	> 100 µM	> 100 µM	> 100 µM	> 100 µM	> 100 µM	> 100 µM										
Cc1ccc(NC(=O)c2cc(S(=O)(=O)N3C(=O)NC(=O)NS3(=O)=O)c(S)cc2Cl)cc1	> 100 µM	60.9 µM	96.7 µM	> 100 µM	> 100 µM	> 100 µM	99.6 µM	> 100 µM	68 µM	> 100 µM	40.4 µM	30.6 µM	29.5 µM	33.2 µM	33.9 µM	42.8 µM	32.3 µM	38.1 µM	27.6 µM	91.6 µM
CC(=O)OCC1OC(N2C(=O)C(=O)c3ccccc32)C(OC(C)=O)C(OC(C)=O)C1OC(C)=O (stereo not given)	> 100 µM	> 100 µM	> 100 µM	> 100 µM	> 100 µM	> 100 µM	> 100 µM	> 100 µM	> 100 µM	> 100 µM										
CSc1nnc(COc2ccc(Cl)cc2)o1	> 100 µM	> 100 µM	> 100 µM	> 100 µM	> 100 µM	> 100 µM	> 100 µM	> 100 µM	> 100 µM	> 100 µM										
O=C(Nc1ccc(Cl)c(Cl)c1)NS(=O)(=O)c1cnccc1Oc1ccc(F)cc1	70.9 µM	8.23 µM	44.4 µM	> 100 µM	51.2 µM	> 100 µM	24.5 µM	> 100 µM	24.6 µM	> 100 µM	4.51 µM	2.5 µM	2.68 µM	3.32 µM	6.14 µM	3.63 µM	3.37 µM	4.48 µM	3.64 µM	3.85 µM
CC(=O)c1ccc(O)c(CN(C2CCCCC2)C2CCCCC2)c1O	> 100 µM	> 100 µM	> 100 µM	> 100 µM	> 100 µM	> 100 µM	> 100 µM	> 100 µM	> 100 µM	> 100 µM										
O=C(/C=C/c1ccccc1)c1ccc(NCc2nc3ccccc3[nH]2)cc1	14.4 µM	25.2 µM	22.5 µM	15.9 µM	23.3 µM	7.73 µM	11 µM	20.9 µM	5.02 µM	20.9 µM										
C=CC(OCC)(OCC)OCC	58.7 µM	> 100 µM	> 100 µM	> 100 µM	> 100 µM	> 100 µM	> 100 µM	> 100 µM	> 100 µM	> 100 µM										
CCCCCCCCCCCCCCCC[N+]1(C)CCOCC1	2.99 µM	22.5 µM	20.1 µM	7.99 µM	3.15 µM	3 µM	12.2 µM	4.22 µM	4.07 µM	2.46 µM	1.52 µM	5.32 µM	3.42 µM	2.55 µM	1.34 µM	0.766 µM	2.2 µM	1.63 µM	1.87 µM	0.868 µM
O=c1oc2ccc(I)cc2c(=O)n1-c1ccc(Cl)cc1F	10.5 µM	5.61 µM	8.77 µM	12.6 µM	7.42 µM	18.7 µM	7.68 µM	16.7 µM	6.71 µM	2.97 µM	3.14 µM	1.09 µM	1.53 µM	2.37 µM	2 µM	3.4 µM	1.61 µM	1.51 µM	0.988 µM	0.5 µM
CCNC(=O)COc1ccc(Cl)cc1Cl	> 100 µM	> 100 µM	> 100 µM	> 100 µM	> 100 µM	> 100 µM	> 100 µM	> 100 µM	> 100 µM	> 100 µM										
